Measurements reported in PubChem BioAssay AID2060491 (Molecular Pharmacology Branch, DTP, NCI, 2025).

Tested on: 857933-349-R-J2-PDC complex spheroids, viability
Test: Anticancer human tumor 857933-349-R-J2-PDC patient-derived colon adenocarcinoma cell line growth inhibition [GQUAD]
Settings: for IC50: curve of first compound; for viability, T/C: stronger effect = lower value; active means viability on the fitted dose curve at most 10% of control; inactive means the rest
Method in brief: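 Multi-cell-type spheroids of tumor cells with HUVEC and mesenchymal stem cells, treated with drug combinations. Concentrations descend in half-log steps from near clinical Cmax, or from 10 microM where Cmax is unknown; viability read-out.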

[1] = second compound 0.0316 µM, first compound 0.0316 µM
[2] = second compound 0.0316 µM, first compound 0.1 µM
[3] = second compound 0.0316 µM, first compound 0.316 µM
[4] = second compound 0.0316 µM, first compound 1 µM
[5] = second compound 0.0316 µM, first compound 3.16 µM
[6] = second compound 0.0316 µM, first compound 10 µM
[7] = second compound 0.1 µM, first compound 0.0316 µM
[8] = second compound 0.1 µM, first compound 0.1 µM
[9] = second compound 0.1 µM, first compound 0.316 µM
[10] = second compound 0.1 µM, first compound 1 µM
[11] = second compound 0.1 µM, first compound 3.16 µM
[12] = second compound 0.1 µM, first compound 10 µM
[13] = second compound 0.316 µM, first compound 0.0316 µM
[14] = second compound 0.316 µM, first compound 0.1 µM
[15] = second compound 0.316 µM, first compound 0.316 µM
[16] = second compound 0.316 µM, first compound 1 µM
[17] = second compound 0.316 µM, first compound 3.16 µM
[18] = second compound 0.316 µM, first compound 10 µM
[19] = second compound 1 µM, first compound 0.0316 µM
[20] = second compound 1 µM, first compound 0.1 µM
[21] = second compound 1 µM, first compound 0.316 µM
[22] = second compound 1 µM, first compound 1 µM
[23] = second compound 1 µM, first compound 3.16 µM
[24] = second compound 1 µM, first compound 10 µM
[25] = second compound 3.16 µM, first compound 0.0316 µM
[26] = second compound 3.16 µM, first compound 0.1 µM
[27] = second compound 3.16 µM, first compound 0.316 µM
[28] = second compound 3.16 µM, first compound 1 µM
[29] = second compound 3.16 µM, first compound 3.16 µM
[30] = second compound 3.16 µM, first compound 10 µM
[31] = second compound 10 µM, first compound 0.0316 µM
[32] = second compound 10 µM, first compound 0.1 µM
[33] = second compound 10 µM, first compound 0.316 µM
[34] = second compound 10 µM, first compound 1 µM
[35] = second compound 10 µM, first compound 3.16 µM
[36] = second compound 10 µM, first compound 10 µM
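Further: spheroids exposed to compounds for one week before readout.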
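Wherever viability, T/C is given: percent viability relative to vehicle DMSO wells taken as 100%.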

CC1COCCN1c1cc(C2(O)CC3CCC(C2)O3)c2cnn(-c3ccn[nH]3)c2n1 (stereo not drawn) + CN(C)c1ccc(Nc2c3ccc(NC(=O)CCN4CCCC4)cc3nc3cc(NC(=O)CCN4CCCC4)ccc23)cc1
3.11 µM: IC50 (second compound 10 µM)
9.43 µM: IC50 (second compound 0.0316 µM)
> 10 µM: IC50 (second compound 0.1 µM) | IC50 (second compound 0.316 µM) | IC50 (second compound 1 µM) | IC50 (second compound 3.16 µM)
inactive: viability, T/C [1] 104% | viability, T/C [2] 90.6% | viability, T/C [3] 73.8% | viability, T/C [4] 61.5% | viability, T/C [5] 51.4% | viability, T/C [6] 50.7% | viability, T/C [7] 97.8% | viability, T/C [8] 92.4% | viability, T/C [9] 75.6% | viability, T/C [10] 60.2% | viability, T/C [11] 53.8% | viability, T/C [12] 55.4% | viability, T/C [13] 94.1% | viability, T/C [14] 82.5% | viability, T/C [15] 74.2% | viability, T/C [16] 52.7% | viability, T/C [17] 56.9% | viability, T/C [18] 54.1% | viability, T/C [19] 92.8% | viability, T/C [20] 76% | viability, T/C [21] 71% | viability, T/C [22] 54.6% | viability, T/C [23] 62.6% | viability, T/C [24] 50.1% | viability, T/C [25] 88.2% | viability, T/C [26] 71.9% | viability, T/C [27] 75.3% | viability, T/C [28] 55% | viability, T/C [29] 59.4% | viability, T/C [30] 50% | viability, T/C [31] 70.7% | viability, T/C [32] 70.2% | viability, T/C [33] 63.5% | viability, T/C [34] 54.9% | viability, T/C [35] 51.7% | viability, T/C [36] 40.8%

Cn1ncnc1[C@H]1c2n[nH]c(=O)c3cc(F)cc(c23)N[C@@H]1c1ccc(F)cc1 + CN(C)c1ccc(Nc2c3ccc(NC(=O)CCN4CCCC4)cc3nc3cc(NC(=O)CCN4CCCC4)ccc23)cc1
inactive: viability, T/C (second compound 0.0316 µM, first compound 0.000999 µM) 108% | viability, T/C (second compound 0.0316 µM, first compound 0.00316 µM) 97.2% | viability, T/C (second compound 0.0316 µM, first compound 0.00999 µM) 99.4% | viability, T/C [1] 106% | viability, T/C (second compound 0.0316 µM, first compound 0.0999 µM) 109% | viability, T/C [3] 102% | viability, T/C (second compound 0.1 µM, first compound 0.000999 µM) 102% | viability, T/C (second compound 0.1 µM, first compound 0.00316 µM) 99.9% | viability, T/C (second compound 0.1 µM, first compound 0.00999 µM) 98.6% | viability, T/C [7] 105% | viability, T/C (second compound 0.1 µM, first compound 0.0999 µM) 104% | viability, T/C [9] 101% | viability, T/C (second compound 0.316 µM, first compound 0.000999 µM) 106% | viability, T/C (second compound 0.316 µM, first compound 0.00316 µM) 100% | viability, T/C (second compound 0.316 µM, first compound 0.00999 µM) 98.8% | viability, T/C [13] 97.7% | viability, T/C (second compound 0.316 µM, first compound 0.0999 µM) 105% | viability, T/C [15] 99.7% | viability, T/C (second compound 1 µM, first compound 0.000999 µM) 102% | viability, T/C (second compound 1 µM, first compound 0.00316 µM) 92% | viability, T/C (second compound 1 µM, first compound 0.00999 µM) 96.4% | viability, T/C [19] 96% | viability, T/C (second compound 1 µM, first compound 0.0999 µM) 101% | viability, T/C [21] 94.6% | viability, T/C (second compound 3.16 µM, first compound 0.000999 µM) 90.1% | viability, T/C (second compound 3.16 µM, first compound 0.00316 µM) 81.3% | viability, T/C (second compound 3.16 µM, first compound 0.00999 µM) 84.3% | viability, T/C [25] 85.8% | viability, T/C (second compound 3.16 µM, first compound 0.0999 µM) 90% | viability, T/C [27] 86.5% | viability, T/C (second compound 10 µM, first compound 0.000999 µM) 71.2% | viability, T/C (second compound 10 µM, first compound 0.00316 µM) 77% | viability, T/C (second compound 10 µM, first compound 0.00999 µM) 70.8% | viability, T/C [31] 77.5% | viability, T/C (second compound 10 µM, first compound 0.0999 µM) 75.4% | viability, T/C [33] 71.7%
> 0.316 µM: IC50 (second compound 0.0316 µM) | IC50 (second compound 0.1 µM) | IC50 (second compound 0.316 µM) | IC50 (second compound 1 µM) | IC50 (second compound 3.16 µM) | IC50 (second compound 10 µM)

CC(C)n1c(=O)n(C)c2cnc3cc(F)c(-c4ccc(OCCCN5CCCCC5)nc4)cc3c21 + CN(C)c1ccc(Nc2c3ccc(NC(=O)CCN4CCCC4)cc3nc3cc(NC(=O)CCN4CCCC4)ccc23)cc1
> 10 µM: IC50 (second compound 0.0316 µM) | IC50 (second compound 0.1 µM) | IC50 (second compound 0.316 µM) | IC50 (second compound 1 µM) | IC50 (second compound 3.16 µM) | IC50 (second compound 10 µM)
inactive: viability, T/C [1] 108% | viability, T/C [2] 96.8% | viability, T/C [3] 108% | viability, T/C [4] 104% | viability, T/C [5] 105% | viability, T/C [6] 102% | viability, T/C [7] 103% | viability, T/C [8] 101% | viability, T/C [9] 103% | viability, T/C [10] 105% | viability, T/C [11] 104% | viability, T/C [12] 102% | viability, T/C [13] 103% | viability, T/C [14] 103% | viability, T/C [15] 104% | viability, T/C [16] 99.1% | viability, T/C [17] 115% | viability, T/C [18] 98.3% | viability, T/C [19] 101% | viability, T/C [20] 92.3% | viability, T/C [21] 103% | viability, T/C [22] 95% | viability, T/C [23] 103% | viability, T/C [24] 94% | viability, T/C [25] 90.7% | viability, T/C [26] 83.5% | viability, T/C [27] 93.1% | viability, T/C [28] 85.5% | viability, T/C [29] 98.1% | viability, T/C [30] 70.3% | viability, T/C [31] 72.8% | viability, T/C [32] 74.7% | viability, T/C [33] 76% | viability, T/C [34] 74.4% | viability, T/C [35] 74.9% | viability, T/C [36] 63.7%

COc1ccc([C@@H](O)c2cc(-c3ncnc4cc(N5CCOCC5)ccc34)c(F)cc2Cl)nn1 + CN(C)c1ccc(Nc2c3ccc(NC(=O)CCN4CCCC4)cc3nc3cc(NC(=O)CCN4CCCC4)ccc23)cc1
> 10 µM: IC50 (second compound 0.0316 µM) | IC50 (second compound 0.1 µM) | IC50 (second compound 0.316 µM) | IC50 (second compound 1 µM) | IC50 (second compound 3.16 µM) | IC50 (second compound 10 µM)
inactive: viability, T/C [1] 110% | viability, T/C [2] 99.5% | viability, T/C [3] 101% | viability, T/C [4] 93.3% | viability, T/C [5] 82.5% | viability, T/C [6] 61% | viability, T/C [7] 106% | viability, T/C [8] 101% | viability, T/C [9] 103% | viability, T/C [10] 94.2% | viability, T/C [11] 80.9% | viability, T/C [12] 60.1% | viability, T/C [13] 102% | viability, T/C [14] 101% | viability, T/C [15] 99.1% | viability, T/C [16] 85.8% | viability, T/C [17] 83.6% | viability, T/C [18] 58.2% | viability, T/C [19] 98.8% | viability, T/C [20] 91.2% | viability, T/C [21] 99.3% | viability, T/C [22] 85.4% | viability, T/C [23] 79% | viability, T/C [24] 62.4% | viability, T/C [25] 85.2% | viability, T/C [26] 85.9% | viability, T/C [27] 91.5% | viability, T/C [28] 77.8% | viability, T/C [29] 69.5% | viability, T/C [30] 57.1% | viability, T/C [31] 73.5% | viability, T/C [32] 77.9% | viability, T/C [33] 70.4% | viability, T/C [34] 72.5% | viability, T/C [35] 63.4% | viability, T/C [36] 54.8%
